Measured values reported in the CheMixHub ionic liquid set.
“And” between values parts separate entries of the source, which are not always exact repeats. Equal entries are not always repeated.

Experiment: xn = mol fraction of the nth substance listed

CCCC[NH3+].O=[N+]([O-])[O-] + O
Conditions	viscosity
278.15 K, 101.33 kPa, x2 = 0.435	46.7 mPa·s
283.15 K, 101.33 kPa, x2 = 0.435	37.92 mPa·s and 48.9 mPa·s
288.15 K, 101.33 kPa, x2 = 0.435	31.29 mPa·s and 40.44 mPa·s
293.15 K, 101.33 kPa, x2 = 0.435	26.16 mPa·s and 33.68 mPa·s
298 K, 101 kPa, x2 = 0	108.5 mPa·s
298 K, 101 kPa, x2 = 0.294	33.93 mPa·s
298 K, 101 kPa, x2 = 0.801	3.93 mPa·s
298 K, 101 kPa, x2 = 0.9	2.18 mPa·s
298.15 K, 101.33 kPa, x2 = 0.435	22.32 mPa·s and 28.34 mPa·s
303.15 K, 101.33 kPa, x2 = 0.435	18.92 mPa·s and 23.98 mPa·s
308.15 K, 101.33 kPa, x2 = 0.435	16.33 mPa·s and 20.7 mPa·s
313.15 K, 101.33 kPa, x2 = 0.435	14.22 mPa·s and 17.85 mPa·s
318.15 K, 101.33 kPa, x2 = 0.435	12.47 mPa·s and 16.84 mPa·s
323.15 K, 101.33 kPa, x2 = 0.435	11.02 mPa·s and 13.73 mPa·s
328.15 K, 101.33 kPa, x2 = 0.435	9.79 mPa·s and 12.73 mPa·s
333.15 K, 101.33 kPa, x2 = 0.435	8.76 mPa·s and 10.31 mPa·s
338.15 K, 101.33 kPa, x2 = 0.435	7.87 mPa·s and 9.34 mPa·s

CCCC[n+]1ccn(C)c1.[Br-] + O
Conditions	electrical conductivity [S/m]	viscosity
288.15 K, 100 kPa, x1 = 0.00126	–	1.159 mPa·s
293.15 K, 100 kPa, x1 = 0.0009002	–	1.033 mPa·s
293.15 K, 100 kPa, x1 = 0.001799	–	1.057 mPa·s
293.15 K, 100 kPa, x1 = 0.002696	–	1.069 mPa·s
298.15 K, 100 kPa, x1 = 0.0001802	–	0.916 mPa·s
298.15 K, 100 kPa, x1 = 0.0007203	–	0.921 mPa·s
298.15 K, 100 kPa, x1 = 0.0009002	–	0.918 mPa·s
298.15 K, 100 kPa, x1 = 0.00126	–	0.93 mPa·s
298.15 K, 100 kPa, x1 = 0.001799	–	0.938 mPa·s
298.15 K, 100 kPa, x1 = 0.002696	–	1 mPa·s
298.15 K, 101 kPa, x1 = 1.982e-05	–	0.888 mPa·s
298.15 K, 101 kPa, x1 = 3.243e-05	–	0.889 mPa·s
298.15 K, 101 kPa, x1 = 0.00999	3.16	–
298.15 K, 101 kPa, x2 = 0.9094	6.16	–
298.15 K, 101 kPa, x2 = 0.94	6.13	–
298.15 K, 101 kPa, x2 = 0.9612	5.7	–
298.15 K, 101 kPa, x2 = 0.9773	4.79	–
298.15 K, 101.3 kPa, x1 = 0.000902	–	0.911 mPa·s
298.15 K, 101.3 kPa, x1 = 0.0009056	–	0.91 mPa·s and 0.911 mPa·s
298.15 K, 101.3 kPa, x1 = 0.0009074	–	0.911 mPa·s
298.15 K, 101.3 kPa, x1 = 0.000911	–	0.91 mPa·s
298.15 K, 101.3 kPa, x1 = 0.00144	–	0.933 mPa·s and 0.936 mPa·s
298.15 K, 101.3 kPa, x1 = 0.001806	–	0.934 mPa·s and 0.935 mPa·s
298.15 K, 101.3 kPa, x1 = 0.001835	–	0.923 mPa·s
298.15 K, 101.3 kPa, x1 = 0.001856	–	0.932 mPa·s
298.15 K, 101.3 kPa, x1 = 0.0036	–	0.966 mPa·s
298.15 K, 101.3 kPa, x1 = 0.003602	–	0.961 mPa·s
298.15 K, 101.3 kPa, x1 = 0.003605	–	0.961 mPa·s and 0.963 mPa·s
298.15 K, 101.3 kPa, x1 = 0.005384	–	0.994 mPa·s
298.15 K, 101.3 kPa, x1 = 0.005411	–	0.997 mPa·s and 0.998 mPa·s
298.15 K, 101.3 kPa, x1 = 0.005432	–	1.004 mPa·s
303.15 K, 100 kPa, x1 = 0.0009002	–	0.823 mPa·s
303.15 K, 100 kPa, x1 = 0.001799	–	0.84 mPa·s
303.15 K, 100 kPa, x1 = 0.002696	–	0.905 mPa·s
303.15 K, 100 kPa, x1 = 0.05	–	2 mPa·s
303.15 K, 100 kPa, x1 = 0.0992	–	3.31 mPa·s
303.15 K, 100 kPa, x1 = 0.3882	–	31.2 mPa·s
308.15 K, 100 kPa, x1 = 0.0001802	–	0.751 mPa·s
308.15 K, 100 kPa, x1 = 0.0007203	–	0.756 mPa·s
308.15 K, 100 kPa, x1 = 0.0009002	–	0.753 mPa·s
308.15 K, 100 kPa, x1 = 0.00126	–	0.763 mPa·s
308.15 K, 100 kPa, x1 = 0.001799	–	0.758 mPa·s
308.15 K, 100 kPa, x1 = 0.002696	–	0.795 mPa·s
308.15 K, 101 kPa, x1 = 3.243e-05	–	0.723 mPa·s
308.15 K, 101 kPa, x1 = 6.584e-05	0.0466	0.727 mPa·s
308.15 K, 101 kPa, x1 = 6.667e-05	–	0.727 mPa·s
308.15 K, 101 kPa, x1 = 0.0001326	0.0915	0.735 mPa·s
308.15 K, 101.3 kPa, x1 = 0.000902	–	0.738 mPa·s
308.15 K, 101.3 kPa, x1 = 0.0009056	–	0.735 mPa·s and 0.736 mPa·s
308.15 K, 101.3 kPa, x1 = 0.0009074	–	0.737 mPa·s
308.15 K, 101.3 kPa, x1 = 0.000911	–	0.735 mPa·s
308.15 K, 101.3 kPa, x1 = 0.001806	–	0.752 mPa·s
308.15 K, 101.3 kPa, x1 = 0.001835	–	0.746 mPa·s and 0.747 mPa·s
308.15 K, 101.3 kPa, x1 = 0.001856	–	0.75 mPa·s
308.15 K, 101.3 kPa, x1 = 0.0036	–	0.776 mPa·s
308.15 K, 101.3 kPa, x1 = 0.003602	–	0.773 mPa·s
308.15 K, 101.3 kPa, x1 = 0.003605	–	0.77 mPa·s and 0.771 mPa·s
308.15 K, 101.3 kPa, x1 = 0.005384	–	0.798 mPa·s
308.15 K, 101.3 kPa, x1 = 0.005411	–	0.801 mPa·s
308.15 K, 101.3 kPa, x1 = 0.005432	–	0.802 mPa·s
310.15 K, 101.3 kPa, x1 = 0.000902	–	0.711 mPa·s
310.15 K, 101.3 kPa, x1 = 0.0009056	–	0.707 mPa·s
310.15 K, 101.3 kPa, x1 = 0.0009074	–	0.71 mPa·s
310.15 K, 101.3 kPa, x1 = 0.000911	–	0.707 mPa·s
310.15 K, 101.3 kPa, x1 = 0.001806	–	0.723 mPa·s
310.15 K, 101.3 kPa, x1 = 0.001835	–	0.717 mPa·s and 0.718 mPa·s
310.15 K, 101.3 kPa, x1 = 0.001856	–	0.723 mPa·s
310.15 K, 101.3 kPa, x1 = 0.0036	–	0.75 mPa·s
310.15 K, 101.3 kPa, x1 = 0.003602	–	0.746 mPa·s
310.15 K, 101.3 kPa, x1 = 0.003605	–	0.74 mPa·s and 0.742 mPa·s
310.15 K, 101.3 kPa, x1 = 0.005384	–	0.767 mPa·s
310.15 K, 101.3 kPa, x1 = 0.005411	–	0.767 mPa·s
310.15 K, 101.3 kPa, x1 = 0.005432	–	0.772 mPa·s
313.15 K, 100 kPa, x1 = 0.0009002	–	0.676 mPa·s
313.15 K, 100 kPa, x1 = 0.001799	–	0.689 mPa·s
313.15 K, 100 kPa, x1 = 0.002696	–	0.749 mPa·s
313.15 K, 100 kPa, x1 = 0.3882	–	20 mPa·s
313.15 K, 101.3 kPa, x1 = 0.00144	–	0.58 mPa·s and 0.695 mPa·s and 0.697 mPa·s
318.15 K, 100 kPa, x1 = 0.0001802	–	0.634 mPa·s
318.15 K, 100 kPa, x1 = 0.0007203	–	0.64 mPa·s
318.15 K, 100 kPa, x1 = 0.0009002	–	0.618 mPa·s and 0.619 mPa·s
318.15 K, 100 kPa, x1 = 0.00126	–	0.646 mPa·s
318.15 K, 100 kPa, x1 = 0.001799	–	0.631 mPa·s
318.15 K, 100 kPa, x1 = 0.002696	–	0.68 mPa·s
318.15 K, 101.3 kPa, x1 = 0.000902	–	0.611 mPa·s
318.15 K, 101.3 kPa, x1 = 0.0009056	–	0.608 mPa·s and 0.609 mPa·s
318.15 K, 101.3 kPa, x1 = 0.0009074	–	0.612 mPa·s
318.15 K, 101.3 kPa, x1 = 0.000911	–	0.608 mPa·s
318.15 K, 101.3 kPa, x1 = 0.001806	–	0.623 mPa·s
318.15 K, 101.3 kPa, x1 = 0.001835	–	0.619 mPa·s
318.15 K, 101.3 kPa, x1 = 0.001856	–	0.622 mPa·s
318.15 K, 101.3 kPa, x1 = 0.0036	–	0.643 mPa·s
318.15 K, 101.3 kPa, x1 = 0.003602	–	0.642 mPa·s
318.15 K, 101.3 kPa, x1 = 0.003605	–	0.638 mPa·s and 0.639 mPa·s
318.15 K, 101.3 kPa, x1 = 0.005384	–	0.659 mPa·s and 0.66 mPa·s
318.15 K, 101.3 kPa, x1 = 0.005411	–	0.66 mPa·s
318.15 K, 101.3 kPa, x1 = 0.005432	–	0.665 mPa·s
323.15 K, 100 kPa, x1 = 0.3882	–	14.6 mPa·s
333.15 K, 100 kPa, x1 = 0.05	–	1.04 mPa·s
333.15 K, 100 kPa, x1 = 0.0992	–	1.66 mPa·s
333.15 K, 100 kPa, x1 = 0.1979	–	3.69 mPa·s
333.15 K, 100 kPa, x1 = 0.2517	–	4.94 mPa·s
333.15 K, 100 kPa, x1 = 0.3882	–	10.6 mPa·s
